Laboratory results taken from patent publication US20230241088A1, “COMPOSITION FOR PREVENTING OR TREATING LUNG CANCER COMPRISING ORTHO-TOPOLIN RIBOSIDE AS ACTIVE INGREDIENT” (CHUNG-ANG UNIVERSITY INDUSTRY-ACADEMY COOPERATION FOUNDATION, priority 2022, published 2023).
“And” between values parts separate entries of the source, which are not always exact repeats. Identical values can stand only once. Like-named read-outs stand apart in the source and are kept apart here.

What was measured:
A549 cells [1] = assay: Annexin V-FITC/propidium iodide flow cytometric apoptosis analysis; type: cell-based, Human; conditions: 48 hours
Method: To detect apoptotic cells, flow cytometric analysis was performed using Annexin V-FITC/propidium iodide double staining of NSCLC cells. A549 cells (4×10^5) were grown to approximately 70-80% confluency in 60 mm dish and treated with oTR (5, 10, and 50 μM) for 48 hours. The cells were stained using the FITC Annexin V Apoptosis Detection Kit (556547, BD Biosciences, Franklin Lakes, N.J., USA) as previously described.

HCC827 = assay: MTT cell viability assay, HCC827; type: cell-based, Human; conditions: 48 hours
Method: (§1) Human NSCLC cell lines A549, H1437, H2087, H522, and HCC827 were obtained from the Korean Cell Line Bank (KCLB, Seoul, Korea). These cells were cultured in RPMI-1640 medium (Gibco, N.Y., USA) supplemented with 10% FBS (Gibco) and 1% penicillin-streptomycin (HyClone Laboratories, Logan, Utah, USA). All cell lines were cultured under standard conditions (5% CO2, humid environment, 37° C.). A549 cells were seeded at a density of 1×10^4 cells/well and H1437, H2087, H522, HCC827, and MRCS cells at a density of 2×10^4 cells/well in 96-well plates and were cultured until cells reach approximately 70-80% confluency. The NSCLC cells were treated with plant hormones for 48 hours. Stock solution of each plant hormone was diluted with culture medium, wherein concentrations of DMSO, water, methanol, and ethanol in the culture medium were below 1% (v/v). The half-maximal inhibitory concentration (IC50) was calculated using CompuSyn software (ComboSyn Inc., Paramus, N.J., USA).
(§2) The inhibitory effect of plant hormones and their derivatives was investigated on 5 NSCLC cell lines (A549, H1437, H2087, H522, and HCC827). The NSCLC cells were treated with ABA, Cor, ethephon, GR-24, IAA, KR, MJ, N6b, N6i, oTR, and SS-HCS at concentrations of 0.1, 0.5, 1, 5, 10, 50, and 100 μM. Cell viability and IC50 values for 48 hours were investigated by performing the MTT assay.

H522 = assay: MTT cell viability assay, H522; type: cell-based, Human; conditions: 48 hours
Method: as §1, §2

A549 cells [2] = assay: Glycolytic function analysis (Seahorse XFe24, glycoPER); type: cell-based, Human; conditions: oTR 5, 10, and 50 μM, 48 hours, FIG. 5A
Method: (§3) Mitochondrial and glycolytic functions were assessed using Seahorse XFe24 analyzer (Agilent Technologies, Lexington, Mass., USA). A549 cells were seeded in a cell culture plate at a density of 1.5×10^4 cells/well. Cells were treated with oTR (5, 10, and 50 μM) for 48 hours after achieving approximately 70-80% confluency. The glycolytic and mitochondrial functions were determined by measuring the proton efflux rate (PER) and oxygen consumption rate (OCR), respectively. Glycolytic PER (glycoPER) was obtained by subtracting mitochondria-derived protons from the total PER. The analyses were conducted according to the manufacturer's instructions.
To investigate real-time changes in cellular metabolic functions, glycoPER (pmol H+/min) and OCR were analyzed (FIG. 5). GlycoPER reflects glycolytic functions, and OCR reflects mitochondrial respiration. […] Measurement of compensatory glycolysis was achieved by blocking oxidative phosphorylation using rotenone/antimycin.

[3] = doses of 100 mg/kg or 150 mg/kg, previous study; cited from earlier work
H2087 = assay: MTT cell viability assay, H2087; type: cell-based, Human; conditions: 48 hours
Method: as §1, §2

[4] = system: p-ERK, ERK, p-AKT, AKT, cleaved caspase-3 in NSCLC tumor tissue; assay: Immunoblot analysis of NSCLC tumor tissue lysates; type: in vivo, nude mice (female, BALB/cSlc-nu/nu); conditions: FIG. 7
Method: The immunoblot analysis was carried out according to a previously described method. A549 cells (4×10^5) were grown to approximately 70-80% confluency and treated with oTR (5, 10, and 50 μM) for 48 hours. The cell lysates and tissue lysates were prepared and subjected to SDS-PAGE for immunoblotting with the respective antibodies. Anti-caspase-3 (9662), anti-p-AKT (4058), and anti-AKT (9272) antibodies were purchased from Cell Signaling Technology (Danvers, Mass., USA). Anti-ERK1/ERK2 (MAB1576) and anti-p-ERK1/ERK2 (AF1018) were purchased from R&D Systems (Minneapolis, Minn., USA). Anti-LC-III (NB100-2331) antibody was purchased from Novus Biologicals (Littleton, Colo., USA). Anti-β-actin (sc-47778) and anti-GAPDH (sc-47724) antibody was purchased from Santa Cruz Biotechnology (Santa Cruz, Calif., USA).

H1437 = assay: MTT cell viability assay, H1437; type: cell-based, Human; conditions: 48 hours
Method: as §1, §2

[5] = system: A549 cells tumor xenograft; conditions: for tumor volume compared to control group: after the second treatment (day 7)
Method: To evaluate the anticancer effect of oTR in tumor tissues, a tumor xenograft model was established by injecting 2.5×10^6 A549 cells into the flanks of nude mice (female, BALB/cSlc-nu/nu). After the tumor volume reached above 100 mm^3 after approximately 3 weeks, the mice were randomized into negative controls and experimental groups (5 mice were used per group). Mice were then injected with oTR solution into the tumor area twice a week for 3 weeks. oTR was dissolved in saline:DMSO (1:1, v/v), and 50 μL of oTR solution was injected into mice in a dose of 100 mg/kg or 150 mg/kg. […] Negative controls were injected with saline:DMSO (1:1, v/v) without oTR. Tumor volume, mouse body weight, and mouse survival were recorded twice a week before injecting oTR. Tumor length (a) and width (b) were measured using calipers and tumor volume (mm^3) was calculated by =(a×b^2)/2.
Tumor xenograft mice were treated with oTR at two doses (100 mg/kg and 150 mg/kg). The tumor volume was measured twice a week for 3 weeks to evaluate the therapeutic effects of the drug in vivo.

A549 cells [6] = assay: Mitochondrial function analysis (Seahorse XFe24, OCR); type: cell-based, Human
Method: as §3
To measure ATP production, oligomycin, an ATPase inhibitor, was added to the cells to inhibit mitochondria-derived ATP synthesis. Then, when carbonyl cyanide-4-(trifluoromethoxy)phenylhydrazone (FCCP), a mitochondrial oxidative phosphorylation uncoupler, was added to the cells, the OCR reached the maximal level, indicating maximal mitochondrial respiration. Spare respiratory capacity (SRC) indicates the amount of extra ATP produced by oxidative phosphorylation when energy demand of the cells increases suddenly. […] To determine the mitochondrial fuel source (glucose, glutamine, and fatty acid) that was better utilized in NSCLC cells, investigation was performed on the OCR of each fuel source in the absence and presence of each inhibitor. UK5099 (for glucose), BPTES (for glutamine), and etomoxir (for fatty acid).

[7] = oTR-treated NSCLC tumor tissues

OC[C@H]1O[C@@H](n2cnc3c(NCc4ccccc4O)ncnc32)[C@H](O)[C@@H]1O [oTR, ortho topolin riboside]
increase in percentage of late apoptotic cells compared to untreated NSCLC cells (A549 cells [1]; 10 μM oTR): 5.70±0.16% | increase in percentage of late apoptotic cells compared to untreated NSCLC cells (A549 cells [1]; 50 μM oTR): 24.56±9.37% | IC50 (HCC827): 29.7 ± 2.56 µM | IC50 (H522): 26.1 ± 2.47 µM | basal and compensatory glycolytic rates (glycoPER) (A549 cells [2]): significant decrease | acute toxicity [3]: no acute toxicity | IC50 (H2087): 51.4 µM and 26.1 µM | expression of cleaved caspase-3 ([4]; oTR (150 mg/kg)-treated group): significantly increased | ERK expression [4, 7]: significant increase | p-AKT and AKT expressions [4, 7]: no significant changes | p-ERK expression [4, 7]: significant decrease | IC50 (H1437): 50 ± 6.55 µM | dose dependence of oTR-induced changes in tumor volume ([5]; 100 mg/kg vs 150 mg/kg): did not decrease in a dose-dependent manner | tumor volume compared to control group ([5]; 100 mg/kg): significantly decreased | tumor volume compared to control group ([5]; 150 mg/kg): significantly decreased | reduction of body weight relative to initial body weight ([5]; mouse, in vivo): ≤ 5% | glucose oxidation (mitochondrial fuel capacity) (A549 cells [6]; oTR 10 μM, FIG. 5C): did not differ | glutamine and fatty acid oxidations (mitochondrial fuel capacity) (A549 cells [6]; oTR 10 μM, FIG. 5C): significantly reduced | OCR (oxygen consumption rate) (A549 cells [6]; oTR 5, 10, and 50 μM, 48 hours, FIG. 5B): reduced | basal OCR, ATP production, and SRC (A549 cells [6]; oTR-treated vs untreated A549 cells): Significant reduction
